Reference: ChEMBL document CHEMBL1153688, “Design, synthesis, and pharmacological evaluation of dual histamine H2 and gastrin receptor antagonists” (Bioorg Med Chem Lett, 1996)

molecular target: Cholecystokinin receptor (Mus musculus) (UniProt O08786+P56481); assay: Ratio of IC50(gastrin) to IC50(CCK-A); format: protein assay; conditions: not given

| SMILES | Ratio |
| --- | --- |
| CN1C(=O)[C@H](NC(=O)Nc2cccc(CC(=O)NCCSCc3csc(N=C(N)N)n3)c2)N=C(c2ccccc2)c2ccccc21 | 3.4 |
| CN1C(=O)[C@H](NC(=O)Nc2cccc(CC(=O)NCCCCCC(=O)NCCCOc3cccc(CN4CCCCC4)c3)c2)N=C(c2ccccc2)c2ccccc21 | 3.1 |
| CN1C(=O)[C@H](NC(=O)Nc2cccc(C(=O)NCCCOc3cccc(CN4CCCCC4)c3)c2)N=C(c2ccccc2)c2ccccc21 | 4.5 |
| Cc1cccc(NC(=O)NC2N=C(c3ccccc3)c3ccccc3N(CC(=O)NCCCCCC(=O)NCCCOc3cccc(CN4CCCCC4)c3)C2=O)c1 (centres undefined) | 40.6 |
| CN1C(=O)[C@H](NC(=O)Nc2cccc(CC(=O)NCCCC(=O)NCCCOc3cccc(CN4CCCCC4)c3)c2)N=C(c2ccccc2)c2ccccc21 | 2.9 |
| Cc1cccc(NC(=O)NC2N=C(c3cccc(OCC(=O)NCCCC(=O)NCCSCc4csc(N=C(N)N)n4)c3)c3ccccc3N(C)C2=O)c1 (centres undefined) | 150 |
| Cc1cccc(NC(=O)NC2N=C(c3cccc(OCC(=O)NCCCCCC(=O)NCCCOc4cccc(CN5CCCCC5)c4)c3)c3ccccc3N(C)C2=O)c1 (centres undefined) | 112 |
| Cc1cccc(NC(=O)NC2N=C(c3cccc(OCC(=O)NCCC(=O)NCCCOc4cccc(CN5CCCCC5)c4)c3)c3ccccc3N(C)C2=O)c1 (centres undefined) | 75 |
| Cc1cccc(NC(=O)NC2N=C(c3cccc(OCC(=O)NCC(=O)NCCSCc4csc(N=C(N)N)n4)c3)c3ccccc3N(C)C2=O)c1 (centres undefined) | 90.8 |
| Cc1cccc(NC(=O)NC2N=C(c3ccccc3)c3ccccc3N(CC(=O)NCC(=O)NCCSCc3csc(N=C(N)N)n3)C2=O)c1 (centres undefined) | 2.1 |
| Cc1cccc(NC(=O)NC2N=C(c3cccc(OCC(=O)NCC(=O)NCCCOc4cccc(CN5CCCCC5)c4)c3)c3ccccc3N(C)C2=O)c1 (centres undefined) | 82.5 |
| Cc1cccc(NC(=O)NC2N=C(c3ccccc3)c3ccccc3N(CC(=O)NCCC(=O)NCCSCc3csc(N=C(N)N)n3)C2=O)c1 (centres undefined) | 5.2 |
| CN1C(=O)[C@H](NC(=O)Nc2cccc(CC(=O)NCCCC(=O)NCCSCc3csc(N=C(N)N)n3)c2)N=C(c2ccccc2)c2ccccc21 | 1.4 |

molecular target: T1, Gastrin/cholecystokinin type B receptor (Mus musculus, UniProt P56481); assay: Inhibitory activity against Cholecystokinin type B receptor; conditions: not given
T1 sequence (P56481 whole entry): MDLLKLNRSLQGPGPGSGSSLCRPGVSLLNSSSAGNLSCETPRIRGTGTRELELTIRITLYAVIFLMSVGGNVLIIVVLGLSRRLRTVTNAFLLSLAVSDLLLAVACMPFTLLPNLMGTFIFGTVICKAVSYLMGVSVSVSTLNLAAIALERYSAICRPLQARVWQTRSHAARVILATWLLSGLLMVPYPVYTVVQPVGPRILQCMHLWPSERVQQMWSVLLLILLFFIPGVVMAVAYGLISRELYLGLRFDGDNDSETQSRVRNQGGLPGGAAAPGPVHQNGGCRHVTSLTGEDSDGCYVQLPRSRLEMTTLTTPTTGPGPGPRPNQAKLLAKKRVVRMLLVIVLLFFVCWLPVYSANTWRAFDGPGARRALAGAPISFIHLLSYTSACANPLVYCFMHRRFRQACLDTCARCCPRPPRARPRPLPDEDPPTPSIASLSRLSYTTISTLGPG

| SMILES | IC50 |
| --- | --- |
| CN1C(=O)[C@H](NC(=O)Nc2cccc(CC(=O)NCCSCc3csc(N=C(N)N)n3)c2)N=C(c2ccccc2)c2ccccc21 | 480 nM |
| CN1C(=O)[C@H](NC(=O)Nc2cccc(CC(=O)NCCCCCC(=O)NCCCOc3cccc(CN4CCCCC4)c3)c2)N=C(c2ccccc2)c2ccccc21 | 92 nM |
| CN1C(=O)[C@H](NC(=O)Nc2cccc(C(=O)NCCCOc3cccc(CN4CCCCC4)c3)c2)N=C(c2ccccc2)c2ccccc21 | 600 nM |
| Cc1cccc(NC(=O)NC2N=C(c3ccccc3)c3ccccc3N(CC(=O)NCCCCCC(=O)NCCCOc3cccc(CN4CCCCC4)c3)C2=O)c1 (centres undefined) | 800 nM |
| CN1C(=O)[C@H](NC(=O)Nc2cccc(CC(=O)NCCCC(=O)NCCCOc3cccc(CN4CCCCC4)c3)c2)N=C(c2ccccc2)c2ccccc21 | 205 nM |
| Cc1cccc(NC(=O)NC2N=C(c3cccc(OCC(=O)NCCCC(=O)NCCSCc4csc(N=C(N)N)n4)c3)c3ccccc3N(C)C2=O)c1 (centres undefined) | 215 nM |
| Cc1cccc(NC(=O)NC2N=C(c3cccc(OCC(=O)NCCCCCC(=O)NCCCOc4cccc(CN5CCCCC5)c4)c3)c3ccccc3N(C)C2=O)c1 (centres undefined) | 320 nM |
| Cc1cccc(NC(=O)NC2N=C(c3cccc(OCC(=O)NCCC(=O)NCCCOc4cccc(CN5CCCCC5)c4)c3)c3ccccc3N(C)C2=O)c1 (centres undefined) | 760 nM |
| Cc1cccc(NC(=O)NC2N=C(c3cccc(OCC(=O)NCC(=O)NCCSCc4csc(N=C(N)N)n4)c3)c3ccccc3N(C)C2=O)c1 (centres undefined) | 310 nM |
| Cc1cccc(NC(=O)NC2N=C(c3ccccc3)c3ccccc3N(CC(=O)NCC(=O)NCCSCc3csc(N=C(N)N)n3)C2=O)c1 (centres undefined) | 6800 nM |
| Cc1cccc(NC(=O)NC2N=C(c3cccc(OCC(=O)NCC(=O)NCCCOc4cccc(CN5CCCCC5)c4)c3)c3ccccc3N(C)C2=O)c1 (centres undefined) | 550 nM |
| Cc1cccc(NC(=O)NC2N=C(c3ccccc3)c3ccccc3N(CC(=O)NCCC(=O)NCCSCc3csc(N=C(N)N)n3)C2=O)c1 (centres undefined) | 430 nM |
| CN1C(=O)[C@H](NC(=O)Nc2cccc(CC(=O)NCCCC(=O)NCCSCc3csc(N=C(N)N)n3)c2)N=C(c2ccccc2)c2ccccc21 | 330 nM |

molecular target: T2, Cholecystokinin receptor type A (Mus musculus, UniProt O08786); assay: Inhibitory activity against Cholecystokinin type A receptor; conditions: not given
T2 sequence (O08786 whole entry): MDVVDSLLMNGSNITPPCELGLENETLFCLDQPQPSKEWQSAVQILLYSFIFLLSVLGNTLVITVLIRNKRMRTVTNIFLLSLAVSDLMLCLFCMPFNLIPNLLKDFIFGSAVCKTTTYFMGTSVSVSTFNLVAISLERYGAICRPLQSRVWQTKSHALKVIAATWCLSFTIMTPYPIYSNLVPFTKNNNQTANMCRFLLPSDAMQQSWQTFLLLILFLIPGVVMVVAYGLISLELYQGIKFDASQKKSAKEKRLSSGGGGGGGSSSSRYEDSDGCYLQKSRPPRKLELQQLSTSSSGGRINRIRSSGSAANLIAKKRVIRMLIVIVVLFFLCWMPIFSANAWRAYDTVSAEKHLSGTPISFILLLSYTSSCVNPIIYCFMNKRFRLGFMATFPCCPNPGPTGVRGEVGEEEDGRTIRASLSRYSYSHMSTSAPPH

| SMILES | IC50 |
| --- | --- |
| Cc1cccc(NC(=O)N[C@@H]2N=C(c3ccccc3)c3ccccc3N(C)C2=O)c1 [L-365260] | 11100 nM |
| CN1C(=O)[C@H](NC(=O)Nc2cccc(CC(=O)NCCSCc3csc(N=C(N)N)n3)c2)N=C(c2ccccc2)c2ccccc21 | 560 nM |
| CN1C(=O)[C@H](NC(=O)Nc2cccc(CC(=O)NCCCCCC(=O)NCCCOc3cccc(CN4CCCCC4)c3)c2)N=C(c2ccccc2)c2ccccc21 | 340 nM |
| CN1C(=O)[C@H](NC(=O)Nc2cccc(C(=O)NCCCOc3cccc(CN4CCCCC4)c3)c2)N=C(c2ccccc2)c2ccccc21 | 2500 nM |
| Cc1cccc(NC(=O)NC2N=C(c3ccccc3)c3ccccc3N(CC(=O)NCCCCCC(=O)NCCCOc3cccc(CN4CCCCC4)c3)C2=O)c1 (centres undefined) | 650 nM |
| CN1C(=O)[C@H](NC(=O)Nc2cccc(CC(=O)NCCCC(=O)NCCCOc3cccc(CN4CCCCC4)c3)c2)N=C(c2ccccc2)c2ccccc21 | 330 nM |
| Cc1cccc(NC(=O)NC2N=C(c3cccc(OCC(=O)NCCCC(=O)NCCSCc4csc(N=C(N)N)n4)c3)c3ccccc3N(C)C2=O)c1 (centres undefined) | 2100 nM |
| Cc1cccc(NC(=O)NC2N=C(c3cccc(OCC(=O)NCCCCCC(=O)NCCCOc4cccc(CN5CCCCC5)c4)c3)c3ccccc3N(C)C2=O)c1 (centres undefined) | 3600 nM |
| Cc1cccc(NC(=O)NC2N=C(c3cccc(OCC(=O)NCCC(=O)NCCCOc4cccc(CN5CCCCC5)c4)c3)c3ccccc3N(C)C2=O)c1 (centres undefined) | 15000 nM |
| Cc1cccc(NC(=O)NC2N=C(c3cccc(OCC(=O)NCC(=O)NCCSCc4csc(N=C(N)N)n4)c3)c3ccccc3N(C)C2=O)c1 (centres undefined) | 1090 nM |
| Cc1cccc(NC(=O)NC2N=C(c3ccccc3)c3ccccc3N(CC(=O)NCC(=O)NCCSCc3csc(N=C(N)N)n3)C2=O)c1 (centres undefined) | 760 nM |
| Cc1cccc(NC(=O)NC2N=C(c3cccc(OCC(=O)NCC(=O)NCCCOc4cccc(CN5CCCCC5)c4)c3)c3ccccc3N(C)C2=O)c1 (centres undefined) | 5200 nM |
| Cc1cccc(NC(=O)NC2N=C(c3ccccc3)c3ccccc3N(CC(=O)NCCC(=O)NCCSCc3csc(N=C(N)N)n3)C2=O)c1 (centres undefined) | 390 nM |
| CN1C(=O)[C@H](NC(=O)Nc2cccc(CC(=O)NCCCC(=O)NCCSCc3csc(N=C(N)N)n3)c2)N=C(c2ccccc2)c2ccccc21 | 330 nM |

molecular target: Histamine H2 receptor (Rattus norvegicus, UniProt P25102); assay: Antagonistic activity for inhibition of histamine H2 receptor from anesthetized rats; format: functional; conditions: read-out: pA2 (converted)
Sequence (P25102 whole entry): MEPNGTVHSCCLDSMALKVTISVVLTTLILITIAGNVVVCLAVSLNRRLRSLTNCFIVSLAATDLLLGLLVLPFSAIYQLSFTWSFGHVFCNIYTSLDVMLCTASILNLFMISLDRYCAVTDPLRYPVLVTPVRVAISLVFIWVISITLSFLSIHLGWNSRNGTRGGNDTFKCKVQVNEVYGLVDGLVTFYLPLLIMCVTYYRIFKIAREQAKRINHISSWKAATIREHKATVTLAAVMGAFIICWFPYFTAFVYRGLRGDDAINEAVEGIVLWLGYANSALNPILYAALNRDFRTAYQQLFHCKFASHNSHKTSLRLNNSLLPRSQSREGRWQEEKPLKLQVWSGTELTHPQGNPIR

| SMILES | Kb |
| --- | --- |
| CN1C(=O)[C@H](NC(=O)Nc2cccc(CC(=O)NCCSCc3csc(N=C(N)N)n3)c2)N=C(c2ccccc2)c2ccccc21 | > 10000 nM |
| CN/C(=N/CCSCc1nc[nH]c1C)NC#N [CIMETIDINE] | 251 nM |
| CN1C(=O)[C@H](NC(=O)Nc2cccc(CC(=O)NCCCCCC(=O)NCCCOc3cccc(CN4CCCCC4)c3)c2)N=C(c2ccccc2)c2ccccc21 | 631 nM |
| CN1C(=O)[C@H](NC(=O)Nc2cccc(C(=O)NCCCOc3cccc(CN4CCCCC4)c3)c2)N=C(c2ccccc2)c2ccccc21 | > 10000 nM |
| Cc1cccc(NC(=O)NC2N=C(c3ccccc3)c3ccccc3N(CC(=O)NCCCCCC(=O)NCCCOc3cccc(CN4CCCCC4)c3)C2=O)c1 (centres undefined) | 398 nM |
| CN1C(=O)[C@H](NC(=O)Nc2cccc(CC(=O)NCCCC(=O)NCCCOc3cccc(CN4CCCCC4)c3)c2)N=C(c2ccccc2)c2ccccc21 | 398 nM |
| Cc1cccc(NC(=O)NC2N=C(c3cccc(OCC(=O)NCCCC(=O)NCCSCc4csc(N=C(N)N)n4)c3)c3ccccc3N(C)C2=O)c1 (centres undefined) | 631 nM |
| Cc1cccc(NC(=O)NC2N=C(c3cccc(OCC(=O)NCCCCCC(=O)NCCCOc4cccc(CN5CCCCC5)c4)c3)c3ccccc3N(C)C2=O)c1 (centres undefined) | 631 nM |
| Cc1cccc(NC(=O)NC2N=C(c3cccc(OCC(=O)NCCC(=O)NCCCOc4cccc(CN5CCCCC5)c4)c3)c3ccccc3N(C)C2=O)c1 (centres undefined) | 501 nM |
| Cc1cccc(NC(=O)NC2N=C(c3cccc(OCC(=O)NCC(=O)NCCSCc4csc(N=C(N)N)n4)c3)c3ccccc3N(C)C2=O)c1 (centres undefined) | 1000 nM |
| Cc1cccc(NC(=O)NC2N=C(c3ccccc3)c3ccccc3N(CC(=O)NCC(=O)NCCSCc3csc(N=C(N)N)n3)C2=O)c1 (centres undefined) | 3980 nM |
| Cc1cccc(NC(=O)NC2N=C(c3cccc(OCC(=O)NCC(=O)NCCCOc4cccc(CN5CCCCC5)c4)c3)c3ccccc3N(C)C2=O)c1 (centres undefined) | 501 nM |
| Cc1cccc(NC(=O)NC2N=C(c3ccccc3)c3ccccc3N(CC(=O)NCCC(=O)NCCSCc3csc(N=C(N)N)n3)C2=O)c1 (centres undefined) | 1260 nM |
| CN1C(=O)[C@H](NC(=O)Nc2cccc(CC(=O)NCCCC(=O)NCCSCc3csc(N=C(N)N)n3)c2)N=C(c2ccccc2)c2ccccc21 | 501 nM |
